Columns and labels:
Type in all cases: cell-based, human
[1] = test system: direct allostimulation of T cells; assay: direct allostimulation: one way primary MLR, responder PBMCs depleted of APC; conditions: responder PBMCs depleted of APC's; similar with CD4+ or CD8+ responders
Procedure: (§1) Purified PBMC from human blood were collected in heparinated tubes by FICOLL gradient. The blood was diluted 1:1 with PBS. 30 ml of the diluted blood was laid on top of 20 ml Ficoll in a 50 ml conical tube and spun at 2,000 rpm for 30 minutes. The interface cells were collected and washed 3 times with medium (10% FCS/RPMI).
(§2) The plastic adherent antigen presenting cells (APC) were removed by resuspended PBMC in 1%. human serum (Type AB) at 1×10^6 cells/ml, and incubated at 37° C. for 30 min. The cells which floated were collected and placed in media (10% FCS/RPMI).
(§3) Nylon wool adherent APC were removed as follows:
(§4) A 10 ml syringe was packed with 1.5 g of nylon wool (Polysciences, Inc., Cat. #18369) and autoclaved. A 3-way stopcock and a 22-gauge needle were attached to the syringe, and the column was washed with 50 ml of prewarmed medium. A cell suspension of 5×10^7 cells/ml of […] was prepared in prewarmed medium. Just before adding the cell suspension, the wool was rinsed with 5 ml of prewarmed medium, the column was left to run dry, and the stopcock was closed. Cells (5-10×10^7) were added. The cells were allowed to penetrate the column, and the stopcock was closed. An additional 0.5 ml of medium was added and the column maintained at 37° C. for 45 minutes. […]

[2] = test system: IFN-γ; assay: IFN-γ in supernatant of JY-induced MLR, ELISA; conditions: 60 hours; IL-10 100 U/ml, CSA 40 ng/ml; PBMC JY alone 5715
Procedure: (§5) ELISA kits for cytokine production determination were purchased from R&D systems, Minneapolis, Minn.
(§6) To investigate the mechanism by which B cell line-induced MLR resists suppression by IL-10, the effect of IL-10 on cytokine synthesis in this MLR was examined. The presence of IL-2, IFN-γ and TNF-α in supernatants of MLR set up with and without IL-10 ([…]) for 60 hours was determined using ELISA kits.
(§7) ^a The MLR cultures were set up as described above using PBMC (1
(§8) × 10^6 /ml) as responder and mitomycin Ctreated JY cells (5
(§9) × 10^5 cell/) or allogeneic PBMC (5 × 10^5) as
(§10) stimulators in a 24well plate for 60 hours. IL10 was used at 100 U/ml and […]

[3] = test system: PBMC + B; assay: MLR with purified normal B cells (CD20+) as stimulators, [3H]TdR uptake; conditions: IL-10 200 U/ml; medium 3939 ± 100
Procedure: (§11) The stimulator PBMAC were treated with 50 μl mitomycin C (Sigma Chemical Co., St. Louis, Mo.) for 20 minutes at 37° C. The responder PBMC and the stimulator cells were added to a 96-well microtiter plate (Becton Dickinson, Lincoln Park, N.J.) at 1×10^5 cells per well of each, along with cytokines or antibodies in a total volume of 200 μl in triplets. The cultures were incubated at 37° C. with 5% CO2 in air for 6 days. The cultures were then pulsed with 1 μCi [^3 H]TdR (15.6CI/mmol, NEN, Boston, Mass.) per well for 16 hours. The cells were harvested onto a filter using a 96-well cell harvestor (Skatron, Inc., Sterling, Va.) and counted on a beta counter (Pharmacia LKB Nuclear Inc., Gaithersburg, Md.).
(§12) The supernatant from the MLR was removed and the non-adherent PBMC harvested. The adherent cells were harvested by incubation with 5 mM EDTA at 4° C. for 20 minutes and gently scraped. Cells were combined, centrifuged at 300×g for 10 minutes and washed 3 times in ice-cold PBS. The viable cells were enumerated by Trypan Blue exclusion using a Neubaeur counting chamber, resuspended to 1×10^7 cell/ml in PBS and 100 μl of human IgG (1 mg/ml) was added to each well and incubated on ice. […] Mean channel fluorescence and percent positives for specific markers were determined using LYSIS II software (BDIS). […]

[4] = test system: PBMC + monocytes; assay: MLR with purified monocytes (CD14+) as stimulators; conditions: monocytes (98% CD14+) as stimulators, PBMC as responder
Procedure: as §11, §12

[5] = test system: IL-2; assay: IL-2 in supernatant of JY-induced MLR, ELISA; conditions: 60 hours; IL-10 100 U/ml, CSA 40 ng/ml; PBMC JY alone 3006
Procedure: as §5, §6, §7, §8, §9, §10

[6] = test system: IL-2; assay: IL-2 in supernatant of PBMC + PBMC MLR, ELISA; conditions: 60 hours; IL-10 100 U/ml; detection limit 50 pg/ml
Procedure: as §5, §6, §7, §8, §9, §10

[7] = test system: TNF-α; assay: TNF-α in supernatant of JY-induced MLR, ELISA; conditions: 60 hours; IL-10 100 U/ml, CSA 40 ng/ml; PBMC JY alone 154
Procedure: as §5, §6, §7, §8, §9, §10

[8] = test system: TNF-α; assay: TNF-α in supernatant of PBMC + PBMC MLR, ELISA; conditions: 60 hours; IL-10 100 U/ml; detection limit 25 pg/ml
Procedure: as §5, §6, §7, §8, §9, §10

[9] = test system: PBMC + JY; assay: MLR with JY B cell line as stimulator, [3H]TdR uptake
Procedure: as §11
(§13) To address this question further, the ability of IL-10 to suppress the proliferation in MLR when allogeneic PBMC, purified B cells, monocytes or B cell lines were used as stimulators was studied.

[10] = test system: indirect allostimulation of T cells; assay: indirect allostimulation: MLR, APC depleted from the stimulator population; conditions: APC's depleted from the stimulator population
Procedure: as §1, §2, §3, §4

[11] = test system: IFN-γ; assay: IFN-γ in supernatant of PBMC + PBMC MLR, ELISA; conditions: 60 hours; IL-10 100 U/ml; detection limit 25 pg/ml
Procedure: as §5, §6, §7, §8, §9, §10

[12] = test system: PBMC + Daudi; assay: MLR with Daudi B cell line as stimulator, [3H]TdR uptake; conditions: IL-10 200 U/ml; medium 37357 ± 4497
Procedure: as §11, §13

[13] = test system: T cell proliferation in MLR (PBMC); assay: one-way primary mixed lymphocyte reaction (MLR), PBMC + mitomycin-treated allogeneic PBMC, [3H]TdR uptake
Procedure: Human blood samples were collected in heparinized vacutainers. To facilitate removal of red blood cells (RBC), 2 ml of 6% dextran in phosphate buffered saline (PBS) (JRH Biosciences, Lenexa, Kans.) was added to each vacutainer, mixed and allowed to stand at room temperature for 30-45 min. The top buffy coat layer was carefully removed and cells centrifuged (300×g, 10 min., 4° C.). The cells were washed 3 times in 15 ml PBS. The peripheral blood mononuclear cells (PBMC) were isolated using a FICOLL-PAQUE (Pharmacia, Piscataway, N.J.) gradient. Ten ml of cells were layered on top of 4 ml FICOLL-PAQUE, centrifuged (1400×g, 20 min., room temperature) and the cells sedimenting at the interface were collected. These PBMC were washed 3 times in PBS, enumerated and resuspended in appropriate media for use in MLR experiments. […] Cell purity determined by staining with CD14 monoclonal antibodies and flow microfluorometric (FMF) analysis was 92% CD14^+. Viability determined by trypan blue exclusion was >95%.
The stimulator PBMAC were treated with 50 μl mitomycin C (Sigma Chemical Co., St. Louis, Mo.) for 20 minutes at 37° C. […] The cells were harvested onto a filter using a 96-well cell harvestor (Skatron, Inc., Sterling, Va.) and counted on a beta counter (Pharmacia LKB Nuclear Inc., Gaithersburg, Md.). […]

Substance: IL-10: human interleukin 10, a cytokine produced by T lymphocytes
- suppression of direct allostimulation, compared with CSA [1]: more suppression than CSA
- Cytokine concentration IFN-γ [2]: 2960 pg/mL
- CPM (M ± SD), 3H-TdR uptake [3]: 182 ± 47 CPM
- suppression of MLR-induced proliferation [4]: strongly suppresses
- Cytokine concentration IL-2 [5]: 1294 pg/mL
- Cytokine concentration IL-2 [6]: < 50 pg/mL
- Cytokine concentration TNF-α [7]: 209 pg/mL
- Cytokine concentration TNF-α [8]: < 25 pg/mL
- CPM (M ± SD), 3H-TdR uptake ([9]; IL-10 200 U/ml, medium 26222 ± 6293): 25182 ± 7302 CPM
- suppression of JY-induced MLR ([9]; higher doses of IL-10 up to 1000 U/ml): did not suppress
- inhibition of indirect allostimulation, compared with CSA [10]: stronger inhibitor to the indirect allostimulation than CSA
- Cytokine concentration IFN-γ [11]: < 25 pg/mL
- CPM (M ± SD), 3H-TdR uptake [12]: 45763 ± 3089 CPM
- IC50 [13]: 8 pM
- CPM (mean ± SD), 3H-TdR uptake ([13]; Human IL-10 100 U/ml, 19B1 and rat IgG at 2.5 U g/ml, untreated MLR 5127 ± 935): 643 ± 197 CPM

— patent US6022536A, “Combined use of interleukin 10 and cyclosporin for immunosuppression therapy” (Schering Corporation, priority 1996, dated 2000)
